Data reported in US10265298B2, “Method of increasing the bioavailability of silybin” (Macau University of Science and Technology, priority 2017, dated 2019).

Target: MRP2 (Homo sapiens, UniProt Q92887)
Experiment: cell-based
Conditions: dog, 180 min
Procedure: (§1) Parental Madin-Darby canine kidney II (MDCKII), multi-drug resistance gene 1-Madin-Darby canine kidney II (MDR1-MDCKII), breast cancer resistance protein-Madin-Darby canine kidney II (BCRP-MDCKII), and multi-drug resistance protein 2-Madin-Darby canine kidney II (MRP2-MDCKII) cells were kindly provided by the Netherlands Cancer Institute (Amsterdam, Netherlands) and frozen at −80° C. The MDCKII cells were cultured at 37° C./5% CO2 in Dulbecco's modified Eagle's medium supplemented with 10% fetal bovine serum, 1% nonessential amino acids, and 2% penicillin-streptomycin. The cells were seeded on transwell inserts (Corning Inc.) at a density of 2.0×10^5 cells/cm^2 and grown for 4-5 days to form confluent monolayers.
(§2) Bidirectional transport assays in human colorectal adenocarcinoma 2 (Caco-2) and Madin-Darby canine kidney II (MDCK II) was carried out by dosing substrates in assay buffer to either the apical chamber (A-to-B) or the basolateral chamber (B-to-A); cells were then incubated at 37° C. with shaking at 50 rotations per minute (rpm), and 100 μl samples were collected at 30, 60, 90, 120 and 180 minutes from the basolateral chamber to study the drug transport of AP to BL, or apical chamber to study the drug transport of BL to AP. Cell monolayers were then washed twice with ice-cold assay buffer and lysed with methanol on ice for 10 minutes. For inhibition studies, Caco-2 or MDCK II cell monolayers were pre-incubated with an inhibitor in both apical and basolateral chambers for 30 minutes, and bidirectional transport of 10 μM silybin was conducted in the absence (control) or presence of the inhibitor in both chambers. […] For fluorescence intensity detection, samples collected from AP or BL side were immediately detected in 96 well black plate by Microplate ultraviolet-visible spectroscopy (UV/VIS) spectrophotometer (TECAN infinite M200 PRO, Männedorf, Switzerland). In all cases, each determination was performed in triplicate.
(§3) The apparent permeability coefficients (Papp) were calculated as Papp=dQ/dt×1/(C“0”A) where dQ/dt (mM/sec) is the rate of permeation of the drug across the cells, C0 (millimolar (mM)) is the donor compartment concentration at time zero and A (cm^2) is the area of the cell monolayer. C0 is obtained from analysis of the dosing solution at the start experiment. Efflux Ratio (ER)=Papp (B to A)/Papp (A to B), while Papp (B−A) is the Papp value measured in the B to A direction, and Papp (A−B) is the Papp value measured in the A to B direction. 1.5 Preparation of Rat Sandwich-Cultured Hepatocytes
(§4) (*, P<0.05;**, P<0.01; ***, P<0.001 vs absence of any inhibitor. n=3).
as §4

MRP2, sequence (Q92887 whole entry): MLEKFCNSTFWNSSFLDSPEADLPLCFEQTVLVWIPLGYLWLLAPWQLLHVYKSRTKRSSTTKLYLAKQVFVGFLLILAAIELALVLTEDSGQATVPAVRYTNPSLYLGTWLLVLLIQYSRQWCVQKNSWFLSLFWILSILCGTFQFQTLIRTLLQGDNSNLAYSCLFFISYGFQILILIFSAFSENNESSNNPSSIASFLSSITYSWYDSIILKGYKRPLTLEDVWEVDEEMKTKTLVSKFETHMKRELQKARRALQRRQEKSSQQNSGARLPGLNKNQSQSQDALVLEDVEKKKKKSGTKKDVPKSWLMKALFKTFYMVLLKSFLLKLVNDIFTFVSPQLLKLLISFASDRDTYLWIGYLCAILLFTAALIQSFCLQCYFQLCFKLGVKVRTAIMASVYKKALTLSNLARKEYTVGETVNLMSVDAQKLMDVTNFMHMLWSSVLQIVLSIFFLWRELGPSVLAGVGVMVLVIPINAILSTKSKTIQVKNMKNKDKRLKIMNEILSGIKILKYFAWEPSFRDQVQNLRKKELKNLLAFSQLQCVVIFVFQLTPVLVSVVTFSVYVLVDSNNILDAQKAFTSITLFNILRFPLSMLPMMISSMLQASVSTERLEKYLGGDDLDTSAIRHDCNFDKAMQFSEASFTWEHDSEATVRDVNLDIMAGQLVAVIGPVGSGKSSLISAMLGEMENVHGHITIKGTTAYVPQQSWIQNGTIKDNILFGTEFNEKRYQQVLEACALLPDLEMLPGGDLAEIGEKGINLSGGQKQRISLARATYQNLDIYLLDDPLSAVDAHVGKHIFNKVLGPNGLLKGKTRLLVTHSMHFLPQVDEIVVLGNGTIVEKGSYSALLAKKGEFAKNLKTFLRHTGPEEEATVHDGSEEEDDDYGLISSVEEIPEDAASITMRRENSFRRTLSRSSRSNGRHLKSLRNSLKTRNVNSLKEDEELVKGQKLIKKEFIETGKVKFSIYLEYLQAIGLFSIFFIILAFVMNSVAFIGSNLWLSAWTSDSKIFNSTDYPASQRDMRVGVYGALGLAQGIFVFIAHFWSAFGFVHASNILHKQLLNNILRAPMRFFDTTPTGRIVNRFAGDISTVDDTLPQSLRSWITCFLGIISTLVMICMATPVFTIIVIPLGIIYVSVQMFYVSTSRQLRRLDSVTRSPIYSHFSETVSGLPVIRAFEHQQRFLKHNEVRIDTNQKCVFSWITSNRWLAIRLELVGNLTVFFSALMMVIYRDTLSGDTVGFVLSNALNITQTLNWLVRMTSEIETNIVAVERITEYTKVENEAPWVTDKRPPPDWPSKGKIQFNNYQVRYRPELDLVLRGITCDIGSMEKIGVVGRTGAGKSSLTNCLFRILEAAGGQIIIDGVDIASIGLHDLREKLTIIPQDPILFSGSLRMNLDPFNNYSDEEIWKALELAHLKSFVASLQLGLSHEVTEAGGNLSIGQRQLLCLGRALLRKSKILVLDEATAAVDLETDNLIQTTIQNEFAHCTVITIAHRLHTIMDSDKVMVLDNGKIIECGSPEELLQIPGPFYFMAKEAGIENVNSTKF

Molecule | efflux ratio of CDCFDA in the presence of inhibitor
CN(C)C(=O)CCSC(SCCC(=O)[O-])c1cccc(/C=C/c2ccc3ccc(Cl)cc3n2)c1.[Na+] (centres unmarked) [MK571, (E)-3-[[[3-[2-(7-chloro-2-quinolinyl)ethenyl]phenyl][[3-(dimethylamino)-3-oxopropyl]thio]methyl]thio]-propanoic acid, sodium salt] | 1.11

System: Caco-2 cells
Experiment: Glucuronidation of silybin in Caco-2 cells (LC-MS peak area of silybin glucuronides)
Format: in vitro ADME, human
Conditions: Homo sapiens, Caco-2; silybin 10 μM, test compound 20 μM co-incubation; read-out: inhibition on the glucuronide conjugation of silybin
Procedure: The analysis of silybin and total concentrations of glucuronides and sulfates was performed on an Agilent HP 1100 LC-MS system (Agilent, CA). A Waters ACQUITY UPLC® BEH C18 Column (1.7 μm, 2.1×50 mm, Waters Corp., Ireland) was used for detection with a C18 Security Guard cartridge (4×2.0 mm i.d., Phenomenex, Torrance, Calif.). Silybin A and silybin B were well separated using optimized gradient elution with methanol (mobile phase B) and 0.1% formic acid in water (mobile phase A) as mobile phase at a flow rate of 0.4 ml/min with a run time of 10 minutes. The gradient employed was as follows (time: mobile phase B percentage): 0 min: 25%, 6 minutes: 40%, 6.5 minutes: 25%.
MS parameters including: capillary voltage, −4000 V; nebulizer pressure, 40 pounds per square inch (psi); drying gas, 9 liters per minute (L/min); drying gas temperature, 325° C.; fragment voltage, 35 volts; dwell time, 200 milliseconds (ms); scan mode, selective ion monitoring (SIM) with [M-H]− for silybin (mass-to-charge ratio (m/z) 481), mono-glucuronide (m/z 657), and NG (m/z 271), respectively. LC-MS data were obtained by Agilent ChemStation Software.
Silybin is primarily metabolized to glucuronide (about 55%) and sulfate (about 28%) conjugates in human plasma after oral administration. To examine whether the co-incubation of flavonoids could affect the conjugation of silybin, the peak area of silybin glucuronides was measured by LC-MS (FIG. 6). Identification of glucuronides in the samples was based on their MS in-source fragmentations (m/z 657).

Molecule | inhibition at 20 µM
O=C(O)[C@H]1O[C@@H](Oc2cc3oc(-c4ccccc4)cc(=O)c3c(O)c2O)[C@H](O)[C@@H](O)[C@@H]1O [baicalin] | > 50%
O=c1cc(-c2ccccc2)oc2cc(O)cc(O)c12 [chrysin] | > 50%
COc1cc(/C=C/C(=O)CC(=O)/C=C/c2ccc(O)c(OC)c2)ccc1O [curcumin] | > 50%
O=C1c2c(O)cc(O)cc2O[C@H](c2cc(O)c(O)c(O)c2)[C@H]1O [dihydromyricetin] | > 50%
O=c1c(O)c(-c2ccc(O)c(O)c2)oc2cc(O)ccc12 [fisetin] | > 50%
COc1cc(-c2oc3cc(O)cc(O)c3c(=O)c2O)ccc1O [isorhamnetin] | > 50%
COc1ccc(-c2oc3cc(O)cc(O)c3c(=O)c2O)cc1 [kaempferide] | > 50%
O=c1c(O)c(-c2ccc(O)cc2)oc2cc(O)cc(O)c12 [kaempferol] | > 50%
O=c1c(O)c(-c2ccc(O)c(O)c2)oc2cc(O)cc(O)c12 [quercetin] | > 50%

Same assay, conditions: silybin 10 μM, test compound 20 μM co-incubation

Molecule | effect on glucuronide metabolites / glucuronide conjugation of silybin
O=C(O[C@@H]1Cc2c(O)cc(O)cc2O[C@@H]1c1ccc(O)c(O)c1)c1cc(O)c(O)c(O)c1 [(−)-ECG] | did not significantly inhibit the conjugation
CN(C)C(=O)CCSC(SCCC(=O)[O-])c1cccc(/C=C/c2ccc3ccc(Cl)cc3n2)c1.[Na+] (centres unmarked) [MK571, (E)-3-[[[3-[2-(7-chloro-2-quinolinyl)ethenyl]phenyl][[3-(dimethylamino)-3-oxopropyl]thio]methyl]thio]-propanoic acid, sodium salt] | almost undetected
COc1ccc2c(c[n+](C)c3c4cc5c(cc4ccc23)OCO5)c1OC [chelerythrine] | did not significantly inhibit the conjugation
COc1ccc(-c2cc(=O)c3c(O)cc(O)cc3o2)cc1O [diosmetin] | almost undetected
O=c1c(O)c(-c2ccccc2)oc2cc(O)cc(O)c12 [galangin] | almost undetected
COc1ccc([C@@H]2CC(=O)c3c(O)cc(O[C@@H]4O[C@H](CO[C@@H]5O[C@@H](C)[C@H](O)[C@@H](O)[C@H]5O)[C@@H](O)[C@H](O)[C@H]4O)cc3O2)cc1O [hesperidin] | did not significantly inhibit the conjugation
O=c1cc(-c2ccc(O)c(O)c2)oc2cc(O)cc(O)c12 [luteolin] | almost undetected
O=c1c(O)c(-c2ccc(O)cc2O)oc2cc(O)cc(O)c12 [morin] | almost undetected
Oc1ccc(C=Cc2cc(O)cc(O)c2)cc1 [resveratrol] | almost undetected

System: not listed separately
Experiment: Bidirectional transport across Caco-2 cell monolayers
Conditions: human, Caco-2
Procedure: (§5) Human colorectal adenocarcinoma-2 (Caco-2) cells was obtained from American Type Culture Collection (Manassas, Va.) and frozen at −80° C. For transport study, cells were cultured at 37° C./5% CO2 in Dulbecco's modified Eagle's medium supplemented with 10% fetal bovine serum, 1% nonessential amino acids, and 1% penicillin-streptomycin. […] The culture medium was changed 24 hours after seeding to remove cell debris and dead cells; after which the medium was changed on alternate days. Monolayers were used for transport assays between 21 and 23 days for Caco-2 cells. Prior to transport study, cell monolayers were certified based on internal criteria on transepithelial electrical resistance (TEER) values.
(§6) Prior to transport study, cell monolayers were certified based on our internal criteria on transepithelial electrical resistance (TEER) values, and only monolayers that met the acceptance criteria (transepithelial electrical resistance >500 Ω·cm^2 for Caco-2 cells and >200 Ω·cm^2 for MDCK cells) were selected for transport studies.
as §2, §3

Molecule | Papp at 180 min
O=c1c(-c2ccc(O)cc2)coc2cc(O)cc(O)c12 [genistein] | 13 ×10⁻⁶ cm/s

System: Caco-2 cell monolayers
Experiment: as above
Conditions: Ko143 at 0.5 μM (BCRP inhibitor); quinidine at 20 μM (P-gp inhibitor)
Procedure: as §5, §6, §2, §3

Molecule | effect of efflux transporter inhibitor on efflux/absorption of silybin
COc1ccc2c3c([nH]c2c1)[C@H](CC(C)C)N1C(=O)[C@H](CCC(=O)OC(C)(C)C)NC(=O)[C@@H]1C3 [Ko143, (3S,6S,12aS)-1,2,3,4,6,7,12,12a-octahydro-9-methoxy-6-(2-methylpropyl)-1,4-dioxo-pyrazino[1′,2′:1,6]pyrido[3,4-b]indole-3-propanoic acid 1,1-dimethylethyl ester] | inhibited the efflux ratio of silybin

Target: T1, BCRP (Homo sapiens, UniProt Q9UNQ0)
T1 sequence (Q9UNQ0 1-655): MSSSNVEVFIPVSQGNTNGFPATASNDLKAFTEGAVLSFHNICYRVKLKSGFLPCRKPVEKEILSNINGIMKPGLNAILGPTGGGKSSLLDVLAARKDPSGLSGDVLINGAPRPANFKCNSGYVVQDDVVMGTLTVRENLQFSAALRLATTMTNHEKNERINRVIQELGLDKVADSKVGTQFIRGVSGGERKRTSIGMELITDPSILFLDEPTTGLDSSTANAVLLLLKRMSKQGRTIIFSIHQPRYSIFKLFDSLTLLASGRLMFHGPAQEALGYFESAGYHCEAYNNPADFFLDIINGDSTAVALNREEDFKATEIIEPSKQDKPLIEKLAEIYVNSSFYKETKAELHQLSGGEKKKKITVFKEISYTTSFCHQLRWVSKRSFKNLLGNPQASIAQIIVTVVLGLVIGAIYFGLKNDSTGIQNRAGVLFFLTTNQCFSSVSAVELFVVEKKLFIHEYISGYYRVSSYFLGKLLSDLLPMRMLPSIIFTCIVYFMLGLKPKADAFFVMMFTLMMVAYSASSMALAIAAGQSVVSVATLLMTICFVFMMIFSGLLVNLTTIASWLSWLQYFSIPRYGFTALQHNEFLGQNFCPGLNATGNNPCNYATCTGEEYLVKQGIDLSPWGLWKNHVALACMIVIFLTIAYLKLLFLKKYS
Experiment: Inhibition of pheophorbide A (Ph A) efflux in MDCKII-BCRP cell monolayers
Conditions: not given
Procedure: as §1, §2, §3, §4, §4

Molecule | mean efflux ratio of pheophorbide A (Ph A)
pheophorbide A [Ph A] | 2.82

System: not listed separately
Experiment: in vitro
Format: in vitro ADME, rat
Conditions: male, Sprague Dawley, rat
Procedure: Sandwich-cultured rat hepatocytes (SCHs) were established according to previously described methods with minor modifications. Primary rat hepatocytes were isolated from male Sprague Dawley® (SD) rats (220-270 g) using a collagenase perfusion as described previously and plated at a density of 7.4×10^5 cells/2 ml/well onto six-well BioCoat plates. Approximately 24 hours later, hepatocytes were overlaid with 2 ml of 0.25 mg/ml BD Matrigel basement membrane matrix in Dulbecco's modified Eagle medium (DMEM) containing 1% volume by volume percentage (v/v) insulin/transferrin/selenium culture supplement, […] dexamethasone, 2 mM L-glutamine, 1% (v/v) minimum essential medium nonessential amino acids, 1% penicillin-streptomycin. Hepatocytes were cultured for 4 days to allow extensive formation of canalicular networks between cells before experimentation and the medium was changed daily.
Sandwich-cultured hepatocytes (SCHs) were pre-incubated in 2 milliliters (ml) of warm Hank's Balanced Salt Solution (HBSS) with or without Ca^2+ at 37° C. for 15 minutes; the tight junctions of the bile canaliculi open temporally after exposure to HBSS without Ca^2+. Subsequently, cells were incubated at 37° C. for 20 minutes with 1.5 ml of standard HBSS containing silybin (10 μM), or MK 571 (50 μM) as a positive control, or baicalein (25, 15.8, 5, 1.58, 0.5, 0.16 μM), or tangeretin (25, 15.8, 5, 1.58, 0.5 μM). After 20 min, cells were washed three times with ice-cold standard HBSS. The cell samples were lysed by sonication in 1 ml of water for 5 seconds with the ultrasonic cell disruption system (SONICS & […], INC., Newtown, Conn., USA). Conjugated silybin and unconjugated (free) silybin were quantified by high-performance liquid chromatography-tandem mass spectrometry (HPLC-MS/MS). Transport function was normalized to the protein content of the hepatocytes which was evaluated by bicinchoninic acid (BCA) protein assay (Pierce Chemical, Rockford, Ill.). The biliary excretion index (BEI; %) and in vitro biliary clearance (Clbiliary; ml/min/kg) were calculated by using B-CLEAR technology (Qualyst, Inc., Research Triangle Park, N.C.) based on the following equations: […]

Molecule | inhibition at 20 min, 50 μM
CN(C)C(=O)CCSC(SCCC(=O)[O-])c1cccc(/C=C/c2ccc3ccc(Cl)cc3n2)c1.[Na+] (centres unmarked) [MK571, (E)-3-[[[3-[2-(7-chloro-2-quinolinyl)ethenyl]phenyl][[3-(dimethylamino)-3-oxopropyl]thio]methyl]thio]-propanoic acid, sodium salt] | 100%
